Several values for one entry are separate records, joined by “and”; a condition that tells them apart may be missing. Equal values may be shown once. Inconclusive results and toxic doses are left out.
Test system: BDF1 mice, L1210 leukemia sc, survival T/C
Assay: NCI In Vivo Anticancer Drug Screen. Data for tumor model L1210 Leukemia (subcutaneous) in B6D2F1 (BDF1) mice
Conditions: higher = longer survival
How it was run: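 Transplantable tumor-bearing mice; survival or tumor size recorded; result = T/C, treated vs vehicle control.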

CN(Cc1cnc2nc(N)nc(N)c2n1)c1ccc(C(=O)N[C@@H](CCC(=O)O)C(=O)O)cc1
T/C (endpoint: mean survival time, dose: 0.65 mg/kg/injection, schedule: Q01DX009 (sc), vehicle: other): 166 % of control and 168 % of control
T/C (endpoint: mean survival time, dose: 1.0 mg/kg/injection, schedule: Q01DX015 (ip), vehicle: other): 158 % of control and 163 % of control and 171 % of control
T/C (endpoint: mean survival time, dose: 1.08 mg/kg/injection, schedule: Q01DX009 (sc), vehicle: other): 158 % of control
T/C (endpoint: mean survival time, dose: 1.8 mg/kg/injection, schedule: Q01DX009 (sc), vehicle: other): 171 % of control
T/C (endpoint: mean survival time, dose: 2.0 mg/kg/injection, schedule: Q01DX009 (ip), vehicle: sodium bicarbonate): 154 % of control and 166 % of control
T/C (endpoint: mean survival time, dose: 4.0 mg/kg/injection, schedule: Q01DX009 (ip), vehicle: sodium bicarbonate): 88 % of control
T/C (endpoint: mean survival time, dose: 20.0 mg/kg/injection, schedule: Q04DX003 (ip), vehicle: sodium bicarbonate): 158 % of control
T/C (endpoint: mean survival time, dose: 45.0 mg/kg/injection, schedule: Q04DX004 (ip), vehicle: other): 99 % of control and 101 % of control
T/C (endpoint: mean survival time, dose: 60.0 mg/kg/injection, schedule: Q04DX004 (ip), vehicle: other): 90 % of control and 105 % of control and 124 % of control
T/C (endpoint: mean survival time, dose: 80.0 mg/kg/injection, schedule: Q04DX003 (ip), vehicle: sodium bicarbonate): 91 % of control
T/C (endpoint: mean survival time, dose: 200.0 mg/kg/injection, schedule: Q01DX001 (ip), vehicle: other): 91 % of control and 111 % of control and 116 % of control
T/C (endpoint: median survival time, dose: 0.01 mg/kg/injection, schedule: Q## X Z (sc), vehicle: other): 100 % of control
T/C (endpoint: median survival time, dose: 0.02 mg/kg/injection, schedule: Q## X Z (sc), vehicle: other): 100 % of control
T/C (endpoint: median survival time, dose: 0.03 mg/kg/injection, schedule: Q## X Z (sc), vehicle: other): 105 % of control
T/C (endpoint: median survival time, dose: 0.05 mg/kg/injection, schedule: Q#A X Z (sc), vehicle: other): 105 % of control
T/C (endpoint: median survival time, dose: 0.14 mg/kg/injection, schedule: Q#A X Z (sc), vehicle: other): 122 % of control
T/C (endpoint: median survival time, dose: 0.17 mg/kg/injection, schedule: Q01DX Z (iv), vehicle: other): 112 % of control
T/C (endpoint: median survival time, dose: 0.23 mg/kg/injection, schedule: Q01DX Z (ip), vehicle: other): 100 % of control
T/C (endpoint: median survival time, dose: 0.23 mg/kg/injection, schedule: Q01DX Z (sc), vehicle: sodium bicarbonate): 109 % of control
T/C (endpoint: median survival time, dose: 0.24 mg/kg/injection, schedule: Q01DX Z (sc), vehicle: other): 104 % of control and 108 % of control
T/C (endpoint: median survival time, dose: 0.3 mg/kg/injection, schedule: Q01DX Z (sc), vehicle: other): 112 % of control
T/C (endpoint: median survival time, dose: 0.39 mg/kg/injection, schedule: Q01DX006 (sc), vehicle: other): 110 % of control
T/C (endpoint: median survival time, dose: 0.39 mg/kg/injection, schedule: Q01DX008 (sc), vehicle: other): 110 % of control
T/C (endpoint: median survival time, dose: 0.39 mg/kg/injection, schedule: Q01DX009 (sc), vehicle: other): 122 % of control
T/C (endpoint: median survival time, dose: 0.39 mg/kg/injection, schedule: Q01DX Z (ip), vehicle: other): 105 % of control
T/C (endpoint: median survival time, dose: 0.47 mg/kg/injection, schedule: Q01DX Z (iv), vehicle: other): 112 % of control
T/C (endpoint: median survival time, dose: 0.47 mg/kg/injection, schedule: Q01DX Z (oral), vehicle: other): 112 % of control
T/C (endpoint: median survival time, dose: 0.65 mg/kg/injection, schedule: Q01DX008 (sc), vehicle: other): 155 % of control and 166 % of control
T/C (endpoint: median survival time, dose: 0.65 mg/kg/injection, schedule: Q01DX009 (sc), vehicle: other): 169 % of control
T/C (endpoint: median survival time, dose: 0.65 mg/kg/injection, schedule: Q01DX017 (sc), vehicle: sodium bicarbonate): 166 % of control
T/C (endpoint: median survival time, dose: 0.65 mg/kg/injection, schedule: Q01DX Z (oral), vehicle: other): 90 % of control
T/C (endpoint: median survival time, dose: 0.65 mg/kg/injection, schedule: Q02DX009 (sc), vehicle: other): 111 % of control
T/C (endpoint: median survival time, dose: 0.65 mg/kg/injection, schedule: Q02DX Z (sc), vehicle: other): 111 % of control
T/C (endpoint: median survival time, dose: 1.08 mg/kg/injection, schedule: Q01DX006 (sc), vehicle: other): 150 % of control
T/C (endpoint: median survival time, dose: 1.08 mg/kg/injection, schedule: Q01DX008 (sc), vehicle: other): 160 % of control and 166 % of control
T/C (endpoint: median survival time, dose: 1.08 mg/kg/injection, schedule: Q01DX009 (ip), vehicle: sodium bicarbonate): 156 % of control and 166 % of control and 168 % of control
T/C (endpoint: median survival time, dose: 1.08 mg/kg/injection, schedule: Q01DX017 (sc), vehicle: sodium bicarbonate): 158 % of control
T/C (endpoint: median survival time, dose: 1.08 mg/kg/injection, schedule: Q01DX Z (ip), vehicle: other): 160 % of control
T/C (endpoint: median survival time, dose: 1.08 mg/kg/injection, schedule: Q01DX Z (oral), vehicle: other): 110 % of control
T/C (endpoint: median survival time, dose: 1.08 mg/kg/injection, schedule: Q02DX009 (sc), vehicle: other): 119 % of control
T/C (endpoint: median survival time, dose: 1.08 mg/kg/injection, schedule: Q02DX Z (sc), vehicle: other): 122 % of control
T/C (endpoint: median survival time, dose: 1.08 mg/kg/injection, schedule: Q#A X Z (sc), vehicle: other): 166 % of control
T/C (endpoint: median survival time, dose: 1.5 mg/kg/injection, schedule: Q01DX009 (ip), vehicle: sodium bicarbonate): 155 % of control and 167 % of control
T/C (endpoint: median survival time, dose: 1.8 mg/kg/injection, schedule: Q01DX006 (sc), vehicle: other): 155 % of control
T/C (endpoint: median survival time, dose: 1.8 mg/kg/injection, schedule: Q01DX008 (sc), vehicle: other): 160 % of control
T/C (endpoint: median survival time, dose: 1.8 mg/kg/injection, schedule: Q01DX009 (ip), vehicle: sodium bicarbonate): 166 % of control and 171 % of control
T/C (endpoint: median survival time, dose: 2.89 mg/kg/injection, schedule: Q01DX Z (ip), vehicle: other): 155 % of control
T/C (endpoint: median survival time, dose: 3.0 mg/kg/injection, schedule: Q01DX006 (sc), vehicle: other): 160 % of control and 166 % of control
T/C (endpoint: median survival time, dose: 3.0 mg/kg/injection, schedule: Q01DX008 (sc), vehicle: other): 160 % of control
T/C (endpoint: median survival time, dose: 3.0 mg/kg/injection, schedule: Q01DX010 (sc), vehicle: other): 161 % of control
T/C (endpoint: median survival time, dose: 3.0 mg/kg/injection, schedule: Q01DX012 (ip), vehicle: sodium bicarbonate): 122 % of control
T/C (endpoint: median survival time, dose: 3.0 mg/kg/injection, schedule: Q01DX Z (oral), vehicle: other): 160 % of control
T/C (endpoint: median survival time, dose: 3.0 mg/kg/injection, schedule: Q02DX009 (sc), vehicle: other): 164 % of control
T/C (endpoint: median survival time, dose: 3.0 mg/kg/injection, schedule: Q02DX Z (sc), vehicle: other): 166 % of control
T/C (endpoint: median survival time, dose: 3.02 mg/kg/injection, schedule: Q01DX Z (sc), vehicle: other): 166 % of control
T/C (endpoint: median survival time, dose: 3.64 mg/kg/injection, schedule: Q01DX Z (sc), vehicle: other): 166 % of control
T/C (endpoint: median survival time, dose: 3.9 mg/kg/injection, schedule: Q01DX Z (sc), vehicle: other): 150 % of control
T/C (endpoint: median survival time, dose: 4.0 mg/kg/injection, schedule: Q01DX Z (sc), vehicle: water): 155 % of control
T/C (endpoint: median survival time, dose: 4.7 mg/kg/injection, schedule: Q01DX Z (sc), vehicle: other): 166 % of control
T/C (endpoint: median survival time, dose: 5.0 mg/kg/injection, schedule: Q01DX009 (ip), vehicle: sodium bicarbonate): 166 % of control and 171 % of control
T/C (endpoint: median survival time, dose: 5.0 mg/kg/injection, schedule: Q01DX025 (sc), vehicle: other): 168 % of control
T/C (endpoint: median survival time, dose: 5.0 mg/kg/injection, schedule: Q01DX Z (sc), vehicle: sodium bicarbonate): 100 % of control
T/C (endpoint: median survival time, dose: 6.0 mg/kg/injection, schedule: Q01DX009 (ip), vehicle: sodium bicarbonate): 119 % of control
T/C (endpoint: median survival time, dose: 6.0 mg/kg/injection, schedule: Q01DX Z (oral), vehicle: other): 156 % of control
T/C (endpoint: median survival time, dose: 14.0 mg/kg/injection, schedule: Q## X Z (sc), vehicle: other): 109 % of control and 113 % of control
T/C (endpoint: median survival time, dose: 62.5 mg/kg/injection, schedule: Q01DX001 (sc), vehicle: other): 111 % of control
T/C (endpoint: median survival time, dose: 65.0 mg/kg/injection, schedule: Q04DX005 (sc), vehicle: sodium bicarbonate): 108 % of control
T/C (endpoint: median survival time, dose: 65.0 mg/kg/injection, schedule: Q## X Z (sc), vehicle: other): 152 % of control
T/C (endpoint: median survival time, dose: 100.0 mg/kg/injection, schedule: Q01DX001 (sc), vehicle: sodium bicarbonate): 150 % of control
T/C (endpoint: median survival time, dose: 108.0 mg/kg/injection, schedule: Q## X Z (sc), vehicle: other): 117 % of control
T/C (endpoint: median survival time, dose: 125.0 mg/kg/injection, schedule: Q01DX001 (sc), vehicle: other): 116 % of control
